Literature values, collected in patent US4894388A, “Glycosidase inhibitors and use thereof” (priority 1988, dated 1990).

Test system: human immunodeficiency virus (HIV)
Details: background literature; cited from earlier work

Question: Which “inhibition of HIV synctium formation and virus replication (in words)” value (from here on “inhibition”) does the source give for `OCC1NC(CO)C(O)C1O` (stereo not drawn) [2,5-dihydroxymethyl-3,4-dihydroxypyrrolidine] here?
Answer: The value was “found to inhibit human immunodeficiency virus (HIV) synctium formation and virus replication”.

Question: With `OC[C@H]1NC[C@H](O)[C@@H](O)[C@@H]1O` [1-deoxynojirimycin (DNJ), 1-deoxynojirimycin] as the compound, how does the “inhibition” value read?
Answer: The value was “found to inhibit human immunodeficiency virus (HIV) synctium formation and virus replication”.

Question: For `O[C@H]1[C@H](O)[C@@H](O)CN2CC[C@H](O)[C@H]12` [castanospermine], which “inhibition” value is on record?
Answer: Its value is “found to inhibit human immunodeficiency virus (HIV) synctium formation and virus replication”.
